Assay results published in article PMC9243654 (Frontiers in Nutrition, 2022).
Like-named read-outs stand apart in the source and are kept apart here.

Experiments:
[1] = ref PubChem database, cited from earlier work
[2] = in vitro
Protocol: The PAMPA-BBB assay was conducted according to the methodology followed by Di et al., with some modifications as described below ([15]). First, the BBB solution was prepared by dissolving 8 mg of PBL and 4 mg of cholesterol in 600 μl of n-dodecane. The initial donor solution was prepared by mixing 1 ml of extract (10 mg ml^−1 in EtOH) with 1 ml of buffer (PBS, pH = 7.4, 10 mM). The filter membrane of the donor plate was carefully coated with 5 μl of BBB solution. The acceptor plate was filled with 350 μl of buffer, and the donor plate was carefully assembled over the acceptor plate like a “sandwich.” Finally, the donor plate was filled with 350 μl of donor solution, covered, and incubated for 4 h at 37°C in the dark. After incubation time, 300 μl of the solution was taken from both plates, transferred to separate vials, and dried in the SpeedVac system at 40°C and 13 mbar pressure. Dried acceptor and donor solution were dissolved in 50 μl of pure EtOH before subjecting to UHPLC-Q-TOF-MS analysis. Permeability across in vitro BBB of the bioactive compound was measured according to Equation (1) ([25]), with some modifications in concentration rates.
(1) Pe=-ln[1-CA(t)/Ce]/A^*(1/VD+1/VA)^*t
Cequilibrium was calculated according to the following equation ([2]):
(2) Cequilibrium=[CD(t)*VD+CA(t)*VA]/(VD+VA)

[3] = compounds of RSFE extract, octanol-water partition coefficient
[4] = compounds identified in LPLE extract
[5] = compound within LPLE (Nothofagus pumilio, lenga PLE extract), classes based on Könczöl et al.
[6] = PAMPA, pH 7.4, PAMPA-BBB log Pe, compound within LPLE (Nothofagus pumilio, lenga PLE extract), N.D = not detected in acceptor

Compound | Log P ([1]; compounds of KD extract) | Cross BBB potential ([2]; compound within KD extract) | Log P [1, 4] | Log P ([1]; compounds of ASFE extract) | also measured
CC12O[C@H]3C[C@@H](O1)[C@]1(C=O)[C@H]4[C@H](O)C(=O)[C@]5(C)[C@@H](c6ccc(=O)oc6)CC[C@]5(O)[C@@H]4CC[C@@]1(C3)O2 [Daigremontianin] | −0.3 | ++ (log Pe > −5.5) |  |  | detection in the acceptor plate of PAMPA-BBB ([2]; PAMPA): could not be found in the acceptor plate; PAMPA-BBB log Pe (cm s−1) ([2]; compound within KD extract, 4 h, 37°C, PBS pH 7.4): −4.53 cm s−1
CC(C)c1cc2c(cc1O)C1(C)CCC(=O)C(C)(C)C1CC2 (centres unmarked) [Hinokione] |  |  |  |  | Log P [1, 3]: 4.9; Cross BBB potential ([2]; compound within RSFE extract): -
CC1(C)C[C@@H]2C3=CC[C@@H]4[C@@]5(C)CC[C@H](O)[C@@](C)(C=O)C5CC[C@@]4(C)[C@]3(C)CC[C@@]2(C(=O)O)C[C@@H]1O (some centres unmarked) [Lucyin A] |  |  | 5.3 | 5.3 | Cross BBB potential ([2]; PAMPA): ++; PAMPA-BBB log Pe ([2]; compound within LPLE (Nothofagus pumilio, lenga PLE extract), N.D = not detected in acceptor): −4.74 cm s−1
C[C@@H]1C(=O)C[C@@H](C(C)(C)O)O[C@@H]2C[C@@]3(C)[C@@H]4CC=C5[C@@H](C=C(O)C(=O)C5(C)C)[C@]4(C)C(=O)C[C@]3(C)[C@@H]12 [Cucurbitacin S] |  |  | 3.2 | 3.2 | Cross BBB potential [2, 5]: -
COc1cc(C=O)cc(OC)c1O [Syringaldehyde] |  |  | 0.1 |  | Log P ([1]; compounds of T33 extract): 1.1; Papp [2, 6]: 13.5 ×10⁻⁶ cm/s
COc1cc(/C=C/C(=O)OC(C(=O)O)C(O)C(=O)O)ccc1O (centres unmarked) [Fertaric acid] |  |  | 0.4 | 0.4 | Cross BBB potential ([2]; compound within ASFE extract): -; Cross BBB potential [2, 5]: -
COc1ccc([C@@H]2CC(=O)c3c(O)cc(O)cc3O2)cc1O [Hesperetin] |  |  | 2.4 |  | Papp at 4 h ([2]; PAMPA, pH 7.4, PAMPA-BBB log Pe): 5.01 ×10⁻⁶ cm/s
COc1cc(C(=O)O)ccc1O [Vanillic acid] | 1.4 | +++ (log Pe > −4.5) | 1.4 | 1.4 | Papp at 4 h ([2]; PAMPA, pH 7.4, PAMPA-BBB log Pe (cm s−1), compound within ASFE extract, 4 h, 37°C, PBS pH 7.4): 2.14 ×10⁻⁶ cm/s; Papp at 4 h ([2]; PAMPA, pH 7.4, PAMPA-BBB log Pe (cm s−1), compound within KD extract, 4 h, 37°C, PBS pH 7.4): 55 ×10⁻⁶ cm/s; Papp at 4 h [2, 6]: 1.35 ×10⁻⁶ cm/s; Cross BBB potential ([2]; compound within ASFE extract): + (log Pe > −6.5); Cross BBB potential [2, 5]: + (log Pe > −6.5)
Oc1cccc(O)c1O [Pyrogallol] |  |  | 0.5 |  | Cross BBB potential ([2]; PAMPA): -
CC(=O)O[C@H]1C[C@H](C)O[C@@H](O[C@H]2CC[C@]3(C=O)[C@H]4[C@H](O)C(=O)[C@]5(C)[C@@H](c6ccc(=O)oc6)CC[C@]5(O)[C@@H]4CC[C@]3(O)C2)[C@H]1O [Kalantuboside A] | 7.5 | - |  |  | 
CC(C)=CCc1cc(/C=C/C(=O)O)cc(CC=C(C)C)c1O [Artepillin C] |  |  |  |  | Log P [1, 3]: 5.4; Cross BBB potential ([2]; PAMPA): +++; PAMPA-BBB log Pe (cm s−1) ([2]; PAMPA, 4 h, pH 7.4): −4.42 cm s−1
O=C1c2c(O)cc(O)cc2O[C@H](c2ccc(O)cc2)[C@H]1O [Aromadendrin] |  |  | 1.8 | 1.8 | Cross BBB potential ([2]; compound within ASFE extract): -; Cross BBB potential [2, 5]: -
Oc1ccc(/C=C/c2cc(O)cc(O)c2)cc1 [Trans-resveratrol] |  |  | 2.5 | 2.5 | Cross BBB potential ([2]; PAMPA): -
COc1cc(-c2oc3cc(O)cc(O)c3c(=O)c2O[C@@H]2O[C@H](CO)[C@@H](O)[C@H](O)[C@H]2O)ccc1O [Isorhamnetin-3-O-glucoside] |  |  |  |  | Log P [1, 3]: 0.7; Cross BBB potential ([2]; compound within RSFE extract): -
CC(=O)O[C@H]1C[C@@H](O)[C@]2(C=O)[C@H]3CC[C@]4(C)[C@@H](c5ccc(=O)oc5)CC[C@]4(O)[C@@H]3CC[C@]2(O)C1 [Bersaldegenin-3-acetate] | 1.3 | - |  |  | 
Resibufagin | 2.4 | - |  |  | 
C[C@]12CC[C@H]3[C@@H](CC[C@]4(O)C[C@@H](O)C[C@@H](O)[C@]34C=O)[C@@]1(O)CC[C@@H]2c1ccc(=O)oc1 [Bersaldegenin] | 0.2 | - |  |  | 
